The subject of test [1] is ovarian somatic cells (OSCs). In words: OSC induction with different FGF family members, marker expression. Type of test: cell-based, human. To be noted: 10 ng/mL FGF in granulosa double medium. On the procedure:
Fibroblast growth factors (FGFs) are a large family of proteins that are important for signaling events in a wide variety of processes. […] Briefly, gonadal cells were induced in granulosa doublemedium comprising different FGFs, and the expression of bipotential gonadal markers as well as that of granulosa markers were measured in the resulting cells.
The replated cells from the second intermediate population were incubated in the granulosa double medium (also referred to as gonadal induction medium or OSC induction medium) according to Table 18, with the same concentration of either FGF2, 9, 10, 16, 17, 18 or 19. The expression of bipotential gonadal markers (WT1, LHX9, GADD45G and GATA4) as well as granulosa markers (FOXL2, NR1H4 and KITLG) were measured in the resulting cells.

Test [2] deals with second intermediate cell population (LHX1, PAX2, WT1, RUNX1). The test is described as follows: Intermediate mesoderm marker expression in second intermediate cell population. Type of test: cell-based, human. To be noted: increasing concentration; for expression of intermediate mesoderm markers WT1 and RUNX1: CHIR 0.5, 1 or 2 μM, RA or TTNPB 0, 0.1, 0.5 or 1 μM. The method, then: The cell suspension was centrifuged at 1200 RPM for 5 min and the supernatant was discarded. The centrifuged cells were resuspended in 1 ml of GK2 medium and the cells were counted. […] The plates were cultured for 24 hours, and then 80% of the media was replaced with fresh IM-induction media without the ROCK inhibitor. 80% of the media was again replaced every other day until the cells became confluent (about 5-6 days). Once the cells were confluent, the cells were passaged to fresh fibronectin-coated 24-well plates, with at least 50,000 cells per well after passage (25k/cm^2).

Test [3] has as its system second intermediate cell population. In words: Induction of second intermediate (IM) cell population: survival and morphology, phase contrast. The format is cell-based, human. To be noted: 5 days in IM-induction media, increasing concentration. On the procedure: The cell suspension was centrifuged at 1200 RPM for 5 min and the supernatant was discarded. The centrifuged cells were resuspended in 1 ml of GK2 medium and the cells were counted. About 720,000 cells (from 24 well plate: 30,000 cells per well) were added to 12 mL IM-induction medium (as prepared in Table 10, but without the ROCK inhibitor). 12 μL ROCK inhibitor Y-27632 (1000×) or 36 μL of CET (3:1000) (final concentration of CET in media: 50 nM Chroman1, 5 μM Emricasan, 0.7 μM Trans-ISRIB) was added to obtain 60,000 cells/mL. 500 μL of the solution was placed in each well of fibronectin coated 24-well plate (about 30,000 cells/well). The plates were cultured for 24 hours, and then 80% of the media was replaced with fresh IM-induction media without the ROCK inhibitor. 80% of the media was again replaced every other day until the cells became confluent (about 5-6 days). Once the cells were confluent, the cells were passaged to fresh fibronectin-coated 24-well plates, with at least 50,000 cells per well after passage (25k/cm^2). About 4-5 million second intermediate cells were produced per 24 well plate. […]

Test [4] relates to OSCs. On the procedure: To assay whether the gonadal somatic cells (such as the ovarian somatic cells—OSCs) generated from pluripotent stem cells are functional, expression of CYP19A1 was assayed by qPCR, and steroidogenesis was measured by ELISA for estradiol.
A first intermediate cell population expressing markers representative of mesoderm, and a second intermediate cell population expressing markers representative of intermediate mesoderm, and the OSCs were generated according to the protocols described in Example 6.

Test [5] concerns ovarian somatic cells (OSCs). The test is described as follows: Concentration titration of BMP4, follistatin and FGF2 in OSC induction, qPCR for GATA4 and FOXL2. Type of test: cell-based, human. To be noted: BMP4 20 ng/mL, follistatin removed. The method, then: Various concentration titrations of BMP4, Follistatin and FGF were tested in OSC induction, and the resulting cells were examined for expression of bipotential gonadal markers as well as that of granulosa markers.
The OSCs were induced based on the protocols described in Example 6, but with various concentrations of BMP4. Follistatin and FGF tested.
The OSC induction conditions were first tested by varying the BMP4 concentration. […] The gene expression of resulting cells was tested by qPCR for bi-potential gonadal cell markers (GATA4) as well as for granulosa cell markers (FOXL2) (FIGS. 12A and 12B respectively). Expression of GATA4 increased with higher BMP4 concentration, and FOXL2 expression appeared to peak at 10 ng/ml of BMP4 under the conditions tested.
Four different concentrations of follistatin were then tested in OSC induction, with the concentration of BMP4 kept constant at 20 ng/ml as previously described. The gene expression of resulting cells was tested by qPCR for bi-potential gonadal cell markers (GATA4) as well as for granulosa cell markers (FOXL2) (FIGS. 12C and 12D respectively). […] The generation of mature OSCs were also examined by FOXL2 expression. […] In subsequent experiments, OSC induction in the absence or at lower concentrations of follistatin was further explored. […]

For test [6], the system named is ovarian somatic cells (OSCs). In words: RA concentration and exposure gradient during OSC induction, FOXL2 and KRT19 staining. Conditions: 10-step gradient 0 μM to 10 μM.

The values below come from patent US20250084372A1, “IN VITRO DERIVATION OF GONADAL SOMATIC CELLS” (Conception Bisosciences, Inc., priority 2020, published 2025).

On to “FGF19: fibroblast growth factor family member”, for which, in test [1], the “expression of bipotential gonadal markers (WT1, LHX9, GADD45G, GATA4) compared to FGF2” value was “comparable or higher” and the “expression of granulosa markers (FOXL2, NR1H4, KITLG) compared to corresponding medium” value is “comparable”.
As for `C/C(=C\c1ccc(C(=O)O)cc1)c1ccc2c(c1)C(C)(C)CCC2(C)C` [TTNPB], the “expression of intermediate mesoderm markers WT1 and RUNX1” value in test [2] is “increasing expression”. Moreover, the “cell survival and cellular morphology of second intermediate cell population” value in test [3] was “increased cell survival and uniform cellular morphology”.
Take `C[C@]12CCC(=O)C[C@@H]1CC[C@@H]1[C@@H]2CC[C@]2(C)[C@@H](O)CC[C@@H]12` [dHT, dihydroxy-testosterone]: the “estradiol levels in the media, 48 hrs compared to 24-hr incubation” value in test [4] (50 ng/ml, 48 hrs) is reported as “further increase”. Further, in test [4] (24-hr incubation, higher concentration), the “estradiol levels in the media” value is recorded as “increased”.
Consider FGF2, for which the “FGF2 concentration at which GATA4 and FOXL2 expression reach saturation” value in test [5] was determined as 20 ng/mL.
Regarding `Cc1c[nH]c(-c2cnc(NCCNc3ccc(C#N)cn3)nc2-c2ccc(Cl)cc2Cl)n1` [CHIR, CHIR99021], the “expression of intermediate mesoderm markers WT1 and RUNX1” value in test [2] is “increased expression”. In addition, the “expression of intermediate mesoderm markers LHX1 and PAX2” value in test [2] (CHIR 1, 2 or 3 μM, RA 50 nM, 100 nM, 500 nM or 1 μM) was “increased expression”.
On to “FGF16: fibroblast growth factor family member”, for which, in test [1], the “expression of bipotential gonadal markers (WT1, LHX9, GADD45G, GATA4) compared to FGF2” value was “comparable or higher” and the “expression of granulosa markers (FOXL2, NR1H4, KITLG) compared to corresponding medium” value is listed as “comparable”.
With `CC1=C(/C=C/C(C)=C/C=C/C(C)=C/C(=O)O)C(C)(C)CCC1` [RA, retinoic acid], in test [6], the “RA concentration at which KRT19 staining peaked” value was “around 500 nM”.
